In patent US9738642B2, “Triazolopyridine ether derivatives and their use in neurological and pyschiatric disorders” (BRISTOL-MYERS SQUIBB COMPANY, priority 2013, dated 2017):
Where a name gives a salt, the structure may show the parent alone.

Biological target: T1, human mGluR2 (Homo sapiens, UniProt Q14416)
T1 construct: expressed in transfected cells; host or cells: HEK293 clonal line
Experiment: mGluR2 cAMP assay
Format: cell-based
Conditions: clonally expressed human mGluR2 in HEK293; 1 μM forskolin, 1 μM LY-341495, 30 min; CISBIO cAMP kit; read-out: EC50 (nM), activity in mGluR2 cAMP assay
Method: On the day of the assay, media was removed, cells washed with PBS, cells harvested and pelleted by centrifugation. Cell pellets were resuspended in stimulation buffer without forskolin and counted. […] A standard curve was created using a top concentration of cAMP of 1 μM in the stimulation buffer, 1:3 dilutions over 14 points in the absence of cells. […] In house software converted the fluorescence value ratios to units of cAMP concentration, which is then used to calculate % inhibition for each test compound. MGluR2 cAMP Assay Materials and Methods. […] Buffer without forskolin was used as a negative control. Solutions of D2 and cryptate detection reagents from the CISBIO dynamic cAMP kit (62AM4PEJ) were diluted 1:40 in lysis buffer. Lysis buffer consisted of 50 mM Phosphate Buffer pH 7.0, 800 mM Potassium Fluoride, 0.2% BSA, and 1.0% Triton. Assay reaction was terminated by addition of detection reagents in lysis buffer. One hour later, plates were read on a PE Viewlux. Data was extracted, and concentration response curves generated by fitting the data to a standard 4 parameter logistic equation from which EC50 values were determined.

T1 sequence (Q14416 19-872): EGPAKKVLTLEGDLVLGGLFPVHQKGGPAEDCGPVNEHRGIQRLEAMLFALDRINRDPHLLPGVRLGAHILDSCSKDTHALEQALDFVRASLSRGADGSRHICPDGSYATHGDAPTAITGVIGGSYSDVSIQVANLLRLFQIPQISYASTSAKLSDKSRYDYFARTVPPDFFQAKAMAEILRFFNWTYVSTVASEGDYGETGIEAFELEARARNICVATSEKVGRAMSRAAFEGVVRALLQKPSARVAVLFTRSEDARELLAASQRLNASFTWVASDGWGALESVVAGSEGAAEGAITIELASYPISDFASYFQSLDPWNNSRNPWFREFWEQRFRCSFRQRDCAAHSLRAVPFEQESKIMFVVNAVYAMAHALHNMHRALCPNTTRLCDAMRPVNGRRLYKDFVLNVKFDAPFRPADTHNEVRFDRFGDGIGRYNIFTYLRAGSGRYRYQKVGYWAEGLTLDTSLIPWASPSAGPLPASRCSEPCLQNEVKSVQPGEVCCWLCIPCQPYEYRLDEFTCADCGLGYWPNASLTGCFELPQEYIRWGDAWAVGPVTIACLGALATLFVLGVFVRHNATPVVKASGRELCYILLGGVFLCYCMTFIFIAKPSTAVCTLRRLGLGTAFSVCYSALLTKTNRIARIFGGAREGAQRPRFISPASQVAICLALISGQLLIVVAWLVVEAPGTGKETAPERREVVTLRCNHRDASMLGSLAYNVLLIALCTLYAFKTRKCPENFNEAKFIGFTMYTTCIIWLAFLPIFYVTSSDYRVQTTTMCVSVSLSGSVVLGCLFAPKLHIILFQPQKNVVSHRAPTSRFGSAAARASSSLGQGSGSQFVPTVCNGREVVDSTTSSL

Compound	EC50 [nM]
Fc1ccc(C2CC2COc2ccn3c(CC4CC4)nnc3c2C(F)(F)F)cc1 (single isomer, unassigned) [Example 78]	2.6
Fc1ccc([C@@H]2C[C@H]2COc2ccn3c(CC4CC4)nnc3c2C(F)(F)F)cc1 (single isomer, unassigned) [Example 79]	1.1
CO[C@]1(c2ccc(F)cc2)CC[C@H](Oc2ccn3c(C4CC4(F)F)nnc3c2C(F)(F)F)CC1 (single isomer, unassigned) [Example 87, TFA salt]	61
CO[C@]1(c2ccc(F)cc2)CC[C@H](Oc2ccn3c(C4CC4(F)F)nnc3c2C(F)(F)F)CC1 (single isomer, unassigned) [Example 88, TFA salt]	3.1
FC(F)(F)c1c(OCC2(c3ccccc3)CCCCC2)ccn2c(CC3CC3)nnc12 [Example 1, 3-(Cyclopropylmethyl)-7-((1-phenylcyclohexyl)methoxy)-8-(trifluoromethyl)-[1,2,4]triazolo[4,3-a]pyridine]	1.8
CC(C)(COc1ccn2c(CC3CC3)nnc2c1C(F)(F)F)c1ccc(Cl)cc1 [Example 2, 7-(2-(4-Chlorophenyl)-2-methylpropoxy)-3-(cyclopropylmethyl)-8-(trifluoromethyl)-[1,2,4]triazolo[4,3-a]pyridine]	5.5
N#Cc1c(OC[C@H]2C[C@@H]2c2ccc(F)cc2)ccn2c(CC3CC3)nnc12 [Example 3, 3-(Cyclopropylmethyl)-7-(((1S,2S)-2-(4-fluorophenyl)cyclopropyl)methoxy)-[1,2,4]triazolo[4,3-a]pyridine-8-carbonitrile]	11
CC(C)(COc1ccn2c(CC3CC3)nnc2c1C(F)(F)F)c1ccc(F)cc1 [Example 6, 3-(Cyclopropylmethyl)-7-(2-(4-fluorophenyl)-2-methylpropoxy)-8-(trifluoromethyl)-[1,2,4]triazolo[4,3-a]pyridine]	11
CC(C)(COc1ccn2c(CC(F)(F)F)nnc2c1C(F)(F)F)c1ccc(Cl)cc1 [Example 7, 7-(2-(4-Chlorophenyl)-2-methylpropoxy)-3-(2,2,2-trifluoroethyl)-8-(trifluoromethyl)-[1,2,4]triazolo[4,3-a]pyridine]	13
CC(C)(COc1ccn2c(CC3CC3)nnc2c1C(F)(F)F)Oc1ccc(F)cc1 [Example 8, 3-(Cyclopropylmethyl)-7-(2-(4-fluorophenoxy)-2-methylpropoxy)-8-(trifluoromethyl)-[1,2,4]triazolo[4,3-a]pyridine]	11
CC(C)(COc1ccn2c(CC(F)(F)F)nnc2c1C(F)(F)F)Oc1ccc(F)cc1 [Example 11, 7-(2-(4-Fluorophenoxy)-2-methylpropoxy)-3-(2,2,2-trifluoroethyl)-8-(trifluoromethyl)-[1,2,4]triazolo[4,3-a]pyridine]	18
CC(C)(COc1ccn2c(CC3CC3)nnc2c1C(F)(F)F)Oc1ccc(Cl)cc1 [Example 13, 7-(2-(4-Chlorophenoxy)-2-methylpropoxy)-3-(cyclopropylmethyl)-8-(trifluoromethyl)-[1,2,4]triazolo[4,3-a]pyridine]	13
CC(C)(COc1ccn2c(CC3CC3)nnc2c1C(F)(F)F)Oc1ccc(F)cc1F [Example 16, 3-(Cyclopropylmethyl)-7-(2-(2,4-difluorophenoxy)-2-methylpropoxy)-8-(trifluoromethyl)-[1,2,4]triazolo[4,3-a]pyridine]	15
N#C[C@]1(c2ccc(F)cc2)CC[C@H](Oc2ccn3c(CC4CC4)nnc3c2C(F)(F)F)CC1 [Example 17, (1s,4s)-4-(3-(Cyclopropylmethyl)-8-(trifluoromethyl)-[1,2,4]triazolo[4,3-a]pyridin-7-yloxy)-1-(4-fluorophenyl)cyclohexanecarbonitrile]	1.4
CCOCc1nnc2c(C(F)(F)F)c(OCC(C)(C)Oc3ccc(Cl)cc3)ccn12 [Example 18, 7-(2-(4-Chlorophenoxy)-2-methylpropoxy)-3-(ethoxymethyl)-8-(trifluoromethyl)-[1,2,4]triazolo[4,3-a]pyridine]	5.9
